System: not given
Assay: not given
Settings: not given

melting point | Structure (SMILES)
148 to 149 °C | COC(=O)c1nc(-c2ccc(C(F)(F)F)nc2)nc(N)c1OC [Compound 43, methyl 6-amino-5-methoxy-2-(6-(trifluoromethyl)pyridin-3-yl)pyrimidine-4-carboxylate]

System: Key Broadleaf Weed and Crop Species
Assay: Post-Emergent Test II (Table 5)
Assay type: in vivo
Settings: Abutilon theophrasti, post-emergence, 336 h, ABUTH: velvetleaf (Abutilon theophrasti), application rate 70 (kg ai/ha; footnote: g ai/ha), read-out: Visual Growth Reduction (%) 14 Days After Application ABUTH
How it was run: (§1)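 Visual injury ratings (0 = no injury, 100 = complete kill) taken 14 days after treatment, relative to untreated controls. Compounds, in an acetone/DMSO aqueous carrier with crop oil and surfactant, were applied by track sprayer at 187 L/ha, in a twofold dilution series from the top rate, to plants at the first to second true-leaf stage.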

Structure (SMILES) | pest or weed control at 70 g/ha
COC(=O)c1nc(-c2ccc(C(F)(F)F)nc2)nc(N)c1OC [Compound 43, methyl 6-amino-5-methoxy-2-(6-(trifluoromethyl)pyridin-3-yl)pyrimidine-4-carboxylate] | 0 to 29%

Same assay, conditions: Abutilon theophrasti, post-emergence, 336 h, ABUTH: velvetleaf (Abutilon theophrasti), application rate 140 (kg ai/ha; footnote: g ai/ha), read-out: Visual Growth Reduction (%) 14 Days After Application ABUTH

Structure (SMILES) | pest or weed control at 140 g/ha
COC(=O)c1nc(-c2ccc(C(F)(F)F)nc2)nc(N)c1OC [Compound 43, methyl 6-amino-5-methoxy-2-(6-(trifluoromethyl)pyridin-3-yl)pyrimidine-4-carboxylate] | 0 to 29%

Same assay, conditions: Amaranthus retroflexus, post-emergence, 336 h, AMARE: redroot pigweed (Amaranthus retroflexus), application rate 70 (kg ai/ha; footnote: g ai/ha), read-out: Visual Growth Reduction (%) 14 Days After Application AMARE

Structure (SMILES) | pest or weed control at 70 g/ha
COC(=O)c1nc(-c2ccc(C(F)(F)F)nc2)nc(N)c1OC [Compound 43, methyl 6-amino-5-methoxy-2-(6-(trifluoromethyl)pyridin-3-yl)pyrimidine-4-carboxylate] | 30 to 44%

Same assay, conditions: Amaranthus retroflexus, post-emergence, 336 h, AMARE: redroot pigweed (Amaranthus retroflexus), application rate 140 (kg ai/ha; footnote: g ai/ha), read-out: Visual Growth Reduction (%) 14 Days After Application AMARE

Structure (SMILES) | pest or weed control at 140 g/ha
COC(=O)c1nc(-c2ccc(C(F)(F)F)nc2)nc(N)c1OC [Compound 43, methyl 6-amino-5-methoxy-2-(6-(trifluoromethyl)pyridin-3-yl)pyrimidine-4-carboxylate] | 60 to 74%

Same assay, conditions: Brassica napus, post-emergence, 336 h, BRSSS: oilseed rape, canola (Brassica napus), application rate 70 (kg ai/ha; footnote: g ai/ha), read-out: Visual Growth Reduction (%) 14 Days After Application BRSSS

Structure (SMILES) | pest or weed control at 70 g/ha
COC(=O)c1nc(-c2ccc(C(F)(F)F)nc2)nc(N)c1OC [Compound 43, methyl 6-amino-5-methoxy-2-(6-(trifluoromethyl)pyridin-3-yl)pyrimidine-4-carboxylate] | 30 to 44%

Same assay, conditions: Brassica napus, post-emergence, 336 h, BRSSS: oilseed rape, canola (Brassica napus), application rate 140 (kg ai/ha; footnote: g ai/ha), read-out: Visual Growth Reduction (%) 14 Days After Application BRSSS

Structure (SMILES) | pest or weed control at 140 g/ha
COC(=O)c1nc(-c2ccc(C(F)(F)F)nc2)nc(N)c1OC [Compound 43, methyl 6-amino-5-methoxy-2-(6-(trifluoromethyl)pyridin-3-yl)pyrimidine-4-carboxylate] | 45 to 59%

Same assay, conditions: Chenopodium album, post-emergence, 336 h, CHEAL: lambsquarters (Chenopodium album), application rate 70 (kg ai/ha; footnote: g ai/ha), read-out: Visual Growth Reduction (%) 14 Days After Application CHEAL

Structure (SMILES) | pest or weed control at 70 g/ha
COC(=O)c1nc(-c2ccc(C(F)(F)F)nc2)nc(N)c1OC [Compound 43, methyl 6-amino-5-methoxy-2-(6-(trifluoromethyl)pyridin-3-yl)pyrimidine-4-carboxylate] | 0 to 29%

Same assay, conditions: Chenopodium album, post-emergence, 336 h, CHEAL: lambsquarters (Chenopodium album), application rate 140 (kg ai/ha; footnote: g ai/ha), read-out: Visual Growth Reduction (%) 14 Days After Application CHEAL

Structure (SMILES) | pest or weed control at 140 g/ha
COC(=O)c1nc(-c2ccc(C(F)(F)F)nc2)nc(N)c1OC [Compound 43, methyl 6-amino-5-methoxy-2-(6-(trifluoromethyl)pyridin-3-yl)pyrimidine-4-carboxylate] | 0 to 29%

Same assay, conditions: Euphorbia heterophylla, post-emergence, 336 h, EPHHL: wild poinsettia (Euphorbia heterophylla), application rate 70 (kg ai/ha; footnote: g ai/ha), read-out: Visual Growth Reduction (%) 14 Days After Application EPHHL

Structure (SMILES) | pest or weed control at 70 g/ha
COC(=O)c1nc(-c2ccc(C(F)(F)F)nc2)nc(N)c1OC [Compound 43, methyl 6-amino-5-methoxy-2-(6-(trifluoromethyl)pyridin-3-yl)pyrimidine-4-carboxylate] | 30 to 44%

Same assay, conditions: Euphorbia heterophylla, post-emergence, 336 h, EPHHL: wild poinsettia (Euphorbia heterophylla), application rate 140 (kg ai/ha; footnote: g ai/ha), read-out: Visual Growth Reduction (%) 14 Days After Application EPHHL

Structure (SMILES) | pest or weed control at 140 g/ha
COC(=O)c1nc(-c2ccc(C(F)(F)F)nc2)nc(N)c1OC [Compound 43, methyl 6-amino-5-methoxy-2-(6-(trifluoromethyl)pyridin-3-yl)pyrimidine-4-carboxylate] | 60 to 74%

Same assay, conditions: Helianthus annuus, post-emergence, 336 h, HELAN: sunflower (Helianthus annuus), application rate 70 (kg ai/ha; footnote: g ai/ha), read-out: Visual Growth Reduction (%) 14 Days After Application HELAN

Structure (SMILES) | pest or weed control at 70 g/ha
COC(=O)c1nc(-c2ccc(C(F)(F)F)nc2)nc(N)c1OC [Compound 43, methyl 6-amino-5-methoxy-2-(6-(trifluoromethyl)pyridin-3-yl)pyrimidine-4-carboxylate] | 0 to 29%

Same assay, conditions: Helianthus annuus, post-emergence, 336 h, HELAN: sunflower (Helianthus annuus), application rate 140 (kg ai/ha; footnote: g ai/ha), read-out: Visual Growth Reduction (%) 14 Days After Application HELAN

Structure (SMILES) | pest or weed control at 140 g/ha
COC(=O)c1nc(-c2ccc(C(F)(F)F)nc2)nc(N)c1OC [Compound 43, methyl 6-amino-5-methoxy-2-(6-(trifluoromethyl)pyridin-3-yl)pyrimidine-4-carboxylate] | 30 to 44%

Same assay, conditions: Viola tricolor, post-emergence, 336 h, VIOTR: wild pansy (Viola tricolor), application rate 70 (kg ai/ha; footnote: g ai/ha), read-out: Visual Growth Reduction (%) 14 Days After Application VIOTR

Structure (SMILES) | pest or weed control at 70 g/ha
COC(=O)c1nc(-c2ccc(C(F)(F)F)nc2)nc(N)c1OC [Compound 43, methyl 6-amino-5-methoxy-2-(6-(trifluoromethyl)pyridin-3-yl)pyrimidine-4-carboxylate] | 0 to 29%

Same assay, conditions: Viola tricolor, post-emergence, 336 h, VIOTR: wild pansy (Viola tricolor), application rate 140 (kg ai/ha; footnote: g ai/ha), read-out: Visual Growth Reduction (%) 14 Days After Application VIOTR

Structure (SMILES) | pest or weed control at 140 g/ha
COC(=O)c1nc(-c2ccc(C(F)(F)F)nc2)nc(N)c1OC [Compound 43, methyl 6-amino-5-methoxy-2-(6-(trifluoromethyl)pyridin-3-yl)pyrimidine-4-carboxylate] | 0 to 29%

System: Key Grass and Sedge Weeds as well as Grass Crops
Assay: Post-Emergent Test II (Table 6)
Assay type: in vivo
Settings: post-emergence, 336 h, CYPSS, 70 g ai/ha, 14 days after application, read-out: Visual Growth Reduction (%) 14 Days After Application CYPSS
How it was run: as §1

Structure (SMILES) | pest or weed control at 70 g/ha
COC(=O)c1nc(-c2ccc(C(F)(F)F)nc2)nc(N)c1OC [Compound 43, methyl 6-amino-5-methoxy-2-(6-(trifluoromethyl)pyridin-3-yl)pyrimidine-4-carboxylate] | 0 to 29%

Same assay, conditions: post-emergence, 336 h, CYPSS, 140 g ai/ha, 14 days after application, read-out: Visual Growth Reduction (%) 14 Days After Application CYPSS

Structure (SMILES) | pest or weed control at 140 g/ha
COC(=O)c1nc(-c2ccc(C(F)(F)F)nc2)nc(N)c1OC [Compound 43, methyl 6-amino-5-methoxy-2-(6-(trifluoromethyl)pyridin-3-yl)pyrimidine-4-carboxylate] | 60 to 74%

Same assay, conditions: post-emergence, 336 h, DIGSA: crabgrass (Digitaria sanguinalis), 70 g ai/ha, 14 days after application, read-out: Visual Growth Reduction (%) 14 Days After Application DIGSA

Structure (SMILES) | pest or weed control at 70 g/ha
COC(=O)c1nc(-c2ccc(C(F)(F)F)nc2)nc(N)c1OC [Compound 43, methyl 6-amino-5-methoxy-2-(6-(trifluoromethyl)pyridin-3-yl)pyrimidine-4-carboxylate] | 30 to 44%

Same assay, conditions: post-emergence, 336 h, DIGSA: crabgrass (Digitaria sanguinalis), 140 g ai/ha, 14 days after application, read-out: Visual Growth Reduction (%) 14 Days After Application DIGSA

Structure (SMILES) | pest or weed control at 140 g/ha
COC(=O)c1nc(-c2ccc(C(F)(F)F)nc2)nc(N)c1OC [Compound 43, methyl 6-amino-5-methoxy-2-(6-(trifluoromethyl)pyridin-3-yl)pyrimidine-4-carboxylate] | 60 to 74%

Same assay, conditions: post-emergence, 336 h, ECHSS, 70 g ai/ha, 14 days after application, read-out: Visual Growth Reduction (%) 14 Days After Application ECHSS

Structure (SMILES) | pest or weed control at 70 g/ha
COC(=O)c1nc(-c2ccc(C(F)(F)F)nc2)nc(N)c1OC [Compound 43, methyl 6-amino-5-methoxy-2-(6-(trifluoromethyl)pyridin-3-yl)pyrimidine-4-carboxylate] | 0 to 29%

Same assay, conditions: post-emergence, 336 h, ECHSS, 140 g ai/ha, 14 days after application, read-out: Visual Growth Reduction (%) 14 Days After Application ECHSS

Structure (SMILES) | pest or weed control at 140 g/ha
COC(=O)c1nc(-c2ccc(C(F)(F)F)nc2)nc(N)c1OC [Compound 43, methyl 6-amino-5-methoxy-2-(6-(trifluoromethyl)pyridin-3-yl)pyrimidine-4-carboxylate] | 0 to 29%

Same assay, conditions: post-emergence, 336 h, ORYSS (crop), 70 g ai/ha, 14 days after application, read-out: Visual Growth Reduction (%) 14 Days After Application ORYSS

Structure (SMILES) | pest or weed control at 70 g/ha
COC(=O)c1nc(-c2ccc(C(F)(F)F)nc2)nc(N)c1OC [Compound 43, methyl 6-amino-5-methoxy-2-(6-(trifluoromethyl)pyridin-3-yl)pyrimidine-4-carboxylate] | 0 to 29%

Same assay, conditions: post-emergence, 336 h, ORYSS (crop), 140 g ai/ha, 14 days after application, read-out: Visual Growth Reduction (%) 14 Days After Application ORYSS

Structure (SMILES) | pest or weed control at 140 g/ha
COC(=O)c1nc(-c2ccc(C(F)(F)F)nc2)nc(N)c1OC [Compound 43, methyl 6-amino-5-methoxy-2-(6-(trifluoromethyl)pyridin-3-yl)pyrimidine-4-carboxylate] | 0 to 29%

Same assay, conditions: post-emergence, 336 h, SETFA: giant foxtail (Setaria faberi), 70 g ai/ha, 14 days after application, read-out: Visual Growth Reduction (%) 14 Days After Application SETFA

Structure (SMILES) | pest or weed control at 70 g/ha
COC(=O)c1nc(-c2ccc(C(F)(F)F)nc2)nc(N)c1OC [Compound 43, methyl 6-amino-5-methoxy-2-(6-(trifluoromethyl)pyridin-3-yl)pyrimidine-4-carboxylate] | 0 to 29%

Same assay, conditions: post-emergence, 336 h, SETFA: giant foxtail (Setaria faberi), 140 g ai/ha, 14 days after application, read-out: Visual Growth Reduction (%) 14 Days After Application SETFA

Structure (SMILES) | pest or weed control at 140 g/ha
COC(=O)c1nc(-c2ccc(C(F)(F)F)nc2)nc(N)c1OC [Compound 43, methyl 6-amino-5-methoxy-2-(6-(trifluoromethyl)pyridin-3-yl)pyrimidine-4-carboxylate] | 0 to 29%

Same assay, conditions: post-emergence, 336 h, SORVU: grain sorghum (Sorghum vulgare), 70 g ai/ha, 14 days after application, read-out: Visual Growth Reduction (%) 14 Days After Application SORVU

Structure (SMILES) | pest or weed control at 70 g/ha
COC(=O)c1nc(-c2ccc(C(F)(F)F)nc2)nc(N)c1OC [Compound 43, methyl 6-amino-5-methoxy-2-(6-(trifluoromethyl)pyridin-3-yl)pyrimidine-4-carboxylate] | 0 to 29%

Same assay, conditions: post-emergence, 336 h, SORVU: grain sorghum (Sorghum vulgare), 140 g ai/ha, 14 days after application, read-out: Visual Growth Reduction (%) 14 Days After Application SORVU

Structure (SMILES) | pest or weed control at 140 g/ha
COC(=O)c1nc(-c2ccc(C(F)(F)F)nc2)nc(N)c1OC [Compound 43, methyl 6-amino-5-methoxy-2-(6-(trifluoromethyl)pyridin-3-yl)pyrimidine-4-carboxylate] | 0 to 29%

Same assay, conditions: post-emergence, 336 h, TRZSS (crop), 70 g ai/ha, 14 days after application, read-out: Visual Growth Reduction (%) 14 Days After Application TRZSS

Structure (SMILES) | pest or weed control at 70 g/ha
COC(=O)c1nc(-c2ccc(C(F)(F)F)nc2)nc(N)c1OC [Compound 43, methyl 6-amino-5-methoxy-2-(6-(trifluoromethyl)pyridin-3-yl)pyrimidine-4-carboxylate] | 0 to 29%

Same assay, conditions: post-emergence, 336 h, TRZSS (crop), 140 g ai/ha, 14 days after application, read-out: Visual Growth Reduction (%) 14 Days After Application TRZSS

Structure (SMILES) | pest or weed control at 140 g/ha
COC(=O)c1nc(-c2ccc(C(F)(F)F)nc2)nc(N)c1OC [Compound 43, methyl 6-amino-5-methoxy-2-(6-(trifluoromethyl)pyridin-3-yl)pyrimidine-4-carboxylate] | 0 to 29%

Same assay, conditions: post-emergence, 336 h, ZEAMX: maize, corn (Zea mays), 70 g ai/ha, 14 days after application, read-out: Visual Growth Reduction (%) 14 Days After Application ZEAMX

Structure (SMILES) | pest or weed control at 70 g/ha
COC(=O)c1nc(-c2ccc(C(F)(F)F)nc2)nc(N)c1OC [Compound 43, methyl 6-amino-5-methoxy-2-(6-(trifluoromethyl)pyridin-3-yl)pyrimidine-4-carboxylate] | 0 to 29%

Same assay, conditions: post-emergence, 336 h, ZEAMX: maize, corn (Zea mays), 140 g ai/ha, 14 days after application, read-out: Visual Growth Reduction (%) 14 Days After Application ZEAMX

Structure (SMILES) | pest or weed control at 140 g/ha
COC(=O)c1nc(-c2ccc(C(F)(F)F)nc2)nc(N)c1OC [Compound 43, methyl 6-amino-5-methoxy-2-(6-(trifluoromethyl)pyridin-3-yl)pyrimidine-4-carboxylate] | 0 to 29%
